Measurements taken from patent publication US20080032959A1, “Estrogen Receptor Modulators” (priority 2004, published 2008).

Experiments:
Type in all cases: in vivo, mouse
[1] = tested on: Progesterone receptor (PR) protein in the dorsal raphe nucleus; assay: Murine brain progestin receptor (PR) ICC assay, dorsal raphe nucleus; conditions: for PR induction in the dorsal raphe nucleus: βERKO mouse lacking functional ERβ, treated 3 days, E2 0.2 mg/kg, A 5 or 10 mg/kg, immunohistochemistry 24 h after last treatment
Method: (§1) Animals (n=5/group) were treated for 3 days and brains and uteri were collected 24 hours after the last treatment and processed for immunohistochemistry.
(§2) Female mice (12-16 wks of age) are ovariectomized by the vendor (C57BL/6s from Charles River) and shipped one week later. Animals are fed a soy-free rodent chow upon arrival at the Merck animal facility, where they are given an additional week to adjust to the new environment. […] Approximately 24 hours after the last dose, animals are deeply anesthetized with ketamine/xylazine and are transcardially perfused with 50 ml of 3.5% acrolein and 2% paraformaldehyde in 0.1 M sodium phosphate buffer (PB), pH 7.4. Brains are immediately removed and placed into ice cold 0.1 M PB and stored at 4 C overnight. Brains are sectioned at 40 μm on a vibrating microtome in 0.1M PB, transferred into cryoprotectant (30% sucrose; 30% ethylene glycol in 0.1 M PB, pH 7.4) and stored at −20° C. until processing for immunocytochemistry.
Free floating 40 μm sections are washed in cold 0.1 M phosphate buffered saline (PBS), pH 7.4, to thoroughly remove cryoprotectant. To insure consistent immunolabeling across animals, a screen-bottom 24-well tissue holder and fitted solid lucite tray containing buffer is used to conduct the experiment. Thus, all sections are co-incubated in the same solutions/conditions during the entire experiment. To deter non-specific staining in acrolein-fixed tissue, sections are washed in 1% sodium borohydride (NaBH4) in PBS for 30 minutes and rinsed 8 to 10 times with PBS. Endogenous peroxidase activity is inhibited by washing tissue in 0.3% hydrogen peroxide and 10% methanol in PBS for 15 minutes. Sections are washed in PBS and blocked in either 1) 2% normal goat serum in PBS with 0.05% Triton X-100 (PBST) for one hour, or 2) a mouse-on-mouse Ig blocking reagent (Vector) for 1 hour followed by a mouse protein concentrate (Vector) for 30 min. Sections are incubated with PR antibody in blocking buffer diluted to 1% normal serum over one night at RT and one night at 4 C, or three nights at 4 C. […]

[2] = tested on: wild type and estrogen receptor beta knockout (βERKO) mice; assay: Uterine weights after 3 days of treatment; conditions: treated 3 days, E2 0.2 mg/kg, A 5 or 10 mg/kg, uteri collected 24 hrs after last treatment
Method: Animals (n=5/group) were treated for 3 days and brain and uteri were collected 24 hrs after last treatment.

[3] = tested on: PR immunoreactive cells in the hippocampus; assay: Murine brain PR ICC assay, hippocampus (PR regulated exclusively by ERα); conditions: 3 days
Method: as §1, §2
Free floating 40 μm sections are washed in cold 0.1 M phosphate buffered saline (PBS), pH 7.4, to thoroughly remove cryoprotectant. To insure consistent immunolabeling across animals, a screen-bottom 24-well tissue holder and fitted solid lucite tray containing buffer is used to conduct the experiment. Thus, all sections are co-incubated in the same solutions/conditions during the entire experiment. […]

Row | SMILES | PR induction in the dorsal raphe nucleus [1] | uterine weight [2] | ER-beta activity in brain ([1]; at the doses tested (A 5 or 10 mg/kg), 3 days) | PR immunoreactive cells in the hippocampus ([3]; 5 mg/kg) | PR immunoreactive cells in the hippocampus ([3]; high dose 10 mg/kg)
1 | C[C@]12CC[C@@H]3c4ccc(O)cc4CC[C@H]3[C@@H]1CC[C@@H]2O [E2, 17β-estradiol, reference compound] | attenuation of PR induction | robustly increased uterine weight |  |  | 
2 | C[C@]12CC[C@H]3[C@@H](CC=C4C[C@@H](O)CC[C@@]43C)[C@@H]1CC[C@@H]2O [A, delta-5-androstene-3-beta-17-beta-diol] | complete loss of PR induction | only a modest effect | full ER-beta activity in brain | no PR immunoreactivity | just an occasional, lightly-stained cell
